Reference: patent US12594254B2, “Intranasal administration of n-acetylcysteine and uses thereof” (Neuronasal, Inc., priority 2022, dated 2026)

How the values were obtained:
Assay type in all cases: in vivo, human
[1] = Blood PK of total NAC and GSH after a single dose of IN NAC in healthy participants
Method: (§1) Various assays were designed and tested assess the feasibility of IN NAC administration for direct nose-to-brain delivery as shown and described for FIGS. 1-4. Assays include studies in healthy participants using ^1H-MRS assessment of change from baseline in NAC-derived metabolic markers in three brain regions (occipital cortex, striatum, and DLPF), following a single dose of 196 mg to 200 mg IN NAC at 1, 3, and 6 hours.
Concentrations of the targeted metabolites were reported for various time points to assess total NAC and GSH concentrations. Mean (±standard error [SE]) of blood PK data were plotted on linear and semi logarithmic scales (FIGS. 1-2).

[2] = tested on: regional brain GSH/creatine ratio; assay: 1H-MRS change from baseline of regional brain GSH/Creatine ratio after single dose IN NAC
Method: as §1
(§2) Magnetic resonance (MR) spectra of NAC-derived brain metabolites in three brain regions (occipital cortex, striatum, and DLPF) at baseline and 1, 3, and 6 hours following IN NAC were assessed. Percentage change from Baseline of GSH/Creatine and N-Acetylaspartate (NAA)/Creatine in the three regions by treatment group were plotted (FIGS. 3-4).

NAA/creatine ratio = assay: 1H-MRS change from baseline of regional brain NAA/Creatine ratio after single dose IN NAC; details: for increase of NAA/creatine ratio post-dose: dorsolateral prefrontal cortex
Method: as §1, §2

CC(=O)N[C@@H](CS)C(=O)O [NAC, N-acetylcysteine]
mean percentage change from Baseline in NAC (blood) ([1]; 196 mg IN NAC, APTAR 5 mL CPS Syringe, 1 hour post-dose): 2881.66% | mean percentage change from Baseline in NAC (blood) ([1]; 196 mg IN NAC, APTAR 5 mL CPS Syringe, 3 hours post-dose): 1158.20% | mean percentage change from Baseline in NAC (blood) ([1]; 196 mg IN NAC, APTAR 5 mL CPS Syringe, 6 hours post-dose): 419.35% | mean percentage change from Baseline in NAC (blood) ([1]; 200 mg IN NAC, Teleflex MAD device, 1 hour post-dose): 2379.60% | mean percentage change from Baseline in NAC (blood) ([1]; 200 mg IN NAC, Teleflex MAD device, 3 hours post-dose): 1117.01% | mean percentage change from Baseline in NAC (blood) ([1]; 200 mg IN NAC, Teleflex MAD device, 6 hours post-dose): 438.17% | effect on regional brain GSH (overall) ([2]; 196 mg IN NAC, APTAR 5 mL CPS Syringe, 1, 3 and 6 hour post-dose timepoints): failed to produce consistent elevation | effect on regional brain GSH (overall) ([2]; 200 mg IN NAC, Teleflex MAD device, 5 participants with analyzable MRS data): time- and region-dependent increase | increase of regional brain GSH/creatine ratio relative to pre-dose baseline ([2]; dorsolateral prefrontal cortex (n=5), 200 mg IN NAC, Teleflex MAD device, 1 hour post-dose): ~17% | increase of regional brain GSH/creatine ratio relative to pre-dose baseline ([2]; dorsolateral prefrontal cortex (n=5), 200 mg IN NAC, Teleflex MAD device, 3 hours post-dose): ~42% | increase of regional brain GSH/creatine ratio relative to pre-dose baseline ([2]; dorsolateral prefrontal cortex (n=5), 200 mg IN NAC, Teleflex MAD device, 6 hours post-dose): ~34% | increase of regional brain GSH/creatine ratio relative to pre-dose baseline ([2]; dorsolateral prefrontal cortex, 196 mg IN NAC, APTAR 5 mL CPS Syringe (n=3), 1 hour): 18% | decrease of regional brain GSH/creatine ratio relative to pre-dose baseline ([2]; dorsolateral prefrontal cortex, 196 mg IN NAC, APTAR 5 mL CPS Syringe (n=3), 3 hours): 71% | increase of regional brain GSH/creatine ratio relative to pre-dose baseline ([2]; dorsolateral prefrontal cortex, 196 mg IN NAC, APTAR 5 mL CPS Syringe (n=3), 6 hours): 4% | increase of regional brain GSH/creatine ratio relative to pre-dose baseline ([2]; occipital cortex (n=5), 200 mg IN NAC, Teleflex MAD device, 1 hour post-dose): ~25% | increase of regional brain GSH/creatine ratio relative to pre-dose baseline ([2]; occipital cortex (n=5), 200 mg IN NAC, Teleflex MAD device, 3 hours post-dose): ~49% | increase of regional brain GSH/creatine ratio relative to pre-dose baseline ([2]; occipital cortex (n=5), 200 mg IN NAC, Teleflex MAD device, 6 hours post-dose): ~21% | decrease of regional brain GSH/creatine ratio relative to pre-dose baseline ([2]; occipital cortex, 196 mg IN NAC, APTAR 5 mL CPS Syringe (n=3), 1 hour): 17% | increase of regional brain GSH/creatine ratio relative to pre-dose baseline ([2]; occipital cortex, 196 mg IN NAC, APTAR 5 mL CPS Syringe (n=3), 3 hours): 2% | increase of regional brain GSH/creatine ratio relative to pre-dose baseline ([2]; occipital cortex, 196 mg IN NAC, APTAR 5 mL CPS Syringe (n=3), 6 hours): 1% | increase of regional brain GSH/creatine ratio relative to pre-dose baseline ([2]; striatum (n=4), 200 mg IN NAC, Teleflex MAD device, 1 hour post-dose): approximately 36% | increase of regional brain GSH/creatine ratio relative to pre-dose baseline ([2]; striatum (n=4), 200 mg IN NAC, Teleflex MAD device, 3 hours post-dose): ~20% | increase of regional brain GSH/creatine ratio relative to pre-dose baseline ([2]; striatum (n=4), 200 mg IN NAC, Teleflex MAD device, 6 hours post-dose): ~14% | increase of regional brain GSH/creatine ratio relative to pre-dose baseline ([2]; striatum, 196 mg IN NAC, APTAR 5 mL CPS Syringe (n=3), 1 hour): 2% | decrease of regional brain GSH/creatine ratio relative to pre-dose baseline ([2]; striatum, 196 mg IN NAC, APTAR 5 mL CPS Syringe (n=3), 3 hours): 11% | change of regional brain GSH/creatine ratio relative to pre-dose baseline ([2]; striatum, 196 mg IN NAC, APTAR 5 mL CPS Syringe (n=3), 6 hours): extreme variability | increase of NAA/creatine ratio post-dose (NAA/creatine ratio; 196 mg dose group, second of two values, time point unclear (1, 3 and 6 hours named)): 9.0% | increase of NAA/creatine ratio post-dose (NAA/creatine ratio; 196 mg dose group, time point unclear (1, 3 and 6 hours named)): 7.9% | increase of NAA/creatine ratio post-dose (NAA/creatine ratio; 200 mg dose group, 1 hour post-dose): 4.5% | increase of NAA/creatine ratio post-dose (NAA/creatine ratio; 200 mg dose group, 3 hours post-dose): 6.0% | increase of NAA/creatine ratio post-dose (NAA/creatine ratio; 200 mg dose group, 6 hours post-dose): 3.8% | post-dose changes in the NAA/creatine ratio relative to baseline (NAA/creatine ratio; striatum and occipital cortex, both dose groups (200 mg and 196 mg), described as minimal): ≤ 2.5% | post-dose changes in the NAA/creatine ratio (NAA/creatine ratio; striatum, 6 hours, 196 mg cohort): highly variable changes
